Test results as given in PubChem BioAssay (NCI).
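Step 1: Grow cells in 96-well plates. Step 2: Expose to compound for 48 hours at 5 concentrations. Step 3: Interpolate endpoints linearly; if unreached, use highest concentration. Here, GI50 denotes the concentration required for 50% inhibition of growth. Definition used: TGI = concentration required for complete inhibition of growth.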

Assays:
Test in all cases: growth of human tumour cells (NCI), 48 h
786-0 renal = test system: 786-0 renal
A498 renal = test system: A498 renal
ACHN renal = test system: ACHN renal
BT-549 breast = test system: BT-549 breast
CAKI-1 renal = test system: CAKI-1 renal
CCRF-CEM leukemia = test system: CCRF-CEM leukemia
COLO 205 colon = test system: COLO 205 colon
EKVX NSCLC = test system: EKVX NSCLC
HCC-2998 colon = test system: HCC-2998 colon
HCT-116 colon = test system: HCT-116 colon
HCT-15 colon = test system: HCT-15 colon
HL-60(TB) leukemia = test system: HL-60(TB) leukemia
HOP-62 NSCLC = test system: HOP-62 NSCLC
HOP-92 NSCLC = test system: HOP-92 NSCLC
HS 578T breast = test system: HS 578T breast
HT29 colon = test system: HT29 colon
IGROV1 ovarian = test system: IGROV1 ovarian
K-562 leukemia = test system: K-562 leukemia
KM12 colon = test system: KM12 colon
LOX IMVI melanoma = test system: LOX IMVI melanoma
M14 melanoma = test system: M14 melanoma
MCF7 breast = test system: MCF7 breast
MDA-MB-231 breast = test system: MDA-MB-231 breast
MDA-MB-435 = test system: MDA-MB-435
MOLT-4 leukemia = test system: MOLT-4 leukemia
NCI-H226 lung = test system: NCI-H226 lung
NCI-H23 lung = test system: NCI-H23 lung
NCI/ADR-RES ovarian = test system: NCI/ADR-RES ovarian
OVCAR-4 ovarian = test system: OVCAR-4 ovarian
OVCAR-8 ovarian = test system: OVCAR-8 ovarian
PC-3 prostate = test system: PC-3 prostate
RPMI-8226 leukemia = test system: RPMI-8226 leukemia
RXF 393 renal = test system: RXF 393 renal
SF-268 CNS = test system: SF-268 CNS
SF-295 CNS = test system: SF-295 CNS
SF-539 CNS = test system: SF-539 CNS
SK-MEL-2 melanoma = test system: SK-MEL-2 melanoma
SK-MEL-28 melanoma = test system: SK-MEL-28 melanoma
SK-MEL-5 melanoma = test system: SK-MEL-5 melanoma
SK-OV-3 ovarian = test system: SK-OV-3 ovarian
SNB-19 CNS = test system: SNB-19 CNS
SNB-75 CNS = test system: SNB-75 CNS
SR leukemia = test system: SR leukemia
SW-620 colon = test system: SW-620 colon
TK-10 renal = test system: TK-10 renal
U251 CNS = test system: U251 CNS
UACC-257 melanoma = test system: UACC-257 melanoma
UACC-62 melanoma = test system: UACC-62 melanoma
UO-31 renal = test system: UO-31 renal
A549 NSCLC = test system: A549 NSCLC
DU-145 prostate = test system: DU-145 prostate
MALME-3M melanoma = test system: MALME-3M melanoma
NCI-H460 lung = test system: NCI-H460 lung
NCI-H522 lung = test system: NCI-H522 lung
OVCAR-3 ovarian = test system: OVCAR-3 ovarian
OVCAR-5 ovarian = test system: OVCAR-5 ovarian
SN12C renal = test system: SN12C renal

Work on `COc1ccc(NC(=S)N/N=C/c2c(C)n(C)n(-c3ccccc3)c2=O)cc1` yielded a TGI (786-0 renal) of 60.4 µM, a TGI (A498 renal) of 49.8 µM and a TGI (ACHN renal) of over 100 µM. For the same compound, the TGI (BT-549 breast) was over 100 µM, the TGI (CAKI-1 renal) was 51.8 µM and the TGI (CCRF-CEM leukemia) was over 100 µM. For the same compound, the TGI (COLO 205 colon) was over 100 µM, the TGI (EKVX NSCLC) was over 100 µM and the TGI (HCC-2998 colon) was over 100 µM. It also gave a TGI (HCT-116 colon) of over 100 µM, a TGI (HCT-15 colon) of over 100 µM and a TGI (HL-60(TB) leukemia) of over 100 µM. It also gave a TGI (HOP-62 NSCLC) of 41.7 µM, a TGI (HOP-92 NSCLC) of 65.4 µM and a TGI (HS 578T breast) of 70.3 µM. For the same compound, the TGI (HT29 colon) was over 100 µM, the TGI (IGROV1 ovarian) was over 100 µM and the TGI (K-562 leukemia) was over 100 µM. It also gave a TGI (KM12 colon) of over 100 µM, a TGI (LOX IMVI melanoma) of over 100 µM and a TGI (M14 melanoma) of over 100 µM. The TGI (MCF7 breast) was over 100 µM, the TGI (MDA-MB-231 breast) was 62.6 µM and the TGI (MDA-MB-435) was over 100 µM. It also gave a TGI (MOLT-4 leukemia) of over 100 µM, a TGI (NCI-H226 lung) of over 100 µM and a TGI (NCI-H23 lung) of over 100 µM. The TGI (NCI/ADR-RES ovarian) was over 100 µM, the TGI (OVCAR-4 ovarian) was 39.8 µM and the TGI (OVCAR-8 ovarian) was 55.7 µM. It also gave a TGI (PC-3 prostate) of over 100 µM, a TGI (RPMI-8226 leukemia) of over 100 µM and a TGI (RXF 393 renal) of 56.6 µM. The TGI (SF-268 CNS) was 70.7 µM, the TGI (SF-295 CNS) was over 100 µM and the TGI (SF-539 CNS) was 59.4 µM. It also gave a TGI (SK-MEL-2 melanoma) of over 100 µM, a TGI (SK-MEL-28 melanoma) of over 100 µM and a TGI (SK-MEL-5 melanoma) of over 100 µM. It also gave a TGI (SK-OV-3 ovarian) of 82.6 µM, a TGI (SNB-19 CNS) of 46.2 µM and a TGI (SNB-75 CNS) of 84.3 µM. For the same compound, the TGI (SR leukemia) was over 100 µM, the TGI (SW-620 colon) was over 100 µM and the TGI (TK-10 renal) was over 100 µM. It also gave a TGI (U251 CNS) of 51.7 µM, a TGI (UACC-257 melanoma) of over 100 µM and a TGI (UACC-62 melanoma) of over 100 µM. For the same compound, the TGI (UO-31 renal) was over 100 µM.
`COc1cccc2cc(N(C)c3ncnc4ccccc34)ccc12` showed a GI50 (786-0 renal) of under 0.0167 µM, a TGI (786-0 renal) of 5.9 µM and a GI50 (A498 renal) of under 0.01 µM. The TGI (A498 renal) was 11 µM, the GI50 (A549 NSCLC) was under 0.01 µM and the TGI (A549 NSCLC) was 9.11 µM. The GI50 (ACHN renal) was under 0.01 µM, the TGI (ACHN renal) was 7.52 µM and the GI50 (BT-549 breast) was 0.0185 µM. It also gave a TGI (BT-549 breast) of 6.64 µM, a GI50 (CAKI-1 renal) of under 0.01 µM and a TGI (CAKI-1 renal) of 12.3 µM. For the same compound, the GI50 (CCRF-CEM leukemia) was under 0.0147 µM, the TGI (CCRF-CEM leukemia) was 17.8 µM and the GI50 (COLO 205 colon) was under 0.01 µM. For the same compound, the TGI (COLO 205 colon) was 0.0659 µM, the GI50 (DU-145 prostate) was under 0.01 µM and the TGI (DU-145 prostate) was 10.4 µM. The GI50 (EKVX NSCLC) was 0.0772 µM, the TGI (EKVX NSCLC) was 13.6 µM and the GI50 (HCC-2998 colon) was 0.0211 µM. It also gave a TGI (HCC-2998 colon) of 5.43 µM, a GI50 (HCT-116 colon) of under 0.01 µM and a TGI (HCT-116 colon) of 0.521 µM. For the same compound, the GI50 (HCT-15 colon) was under 0.01 µM, the TGI (HCT-15 colon) was 12.8 µM and the GI50 (HL-60(TB) leukemia) was under 0.01 µM. For the same compound, the TGI (HL-60(TB) leukemia) was 0.0486 µM, the GI50 (HOP-62 NSCLC) was under 0.01 µM and the TGI (HOP-62 NSCLC) was 15.4 µM. It also gave a GI50 (HOP-92 NSCLC) of under 0.01 µM, a TGI (HOP-92 NSCLC) of 1.03 µM and a GI50 (HS 578T breast) of under 0.01 µM. For the same compound, the TGI (HS 578T breast) was 20.4 µM, the GI50 (HT29 colon) was under 0.01 µM and the TGI (HT29 colon) was 11.8 µM. For the same compound, the GI50 (IGROV1 ovarian) was under 0.01 µM, the TGI (IGROV1 ovarian) was 12.2 µM and the GI50 (K-562 leukemia) was under 0.01 µM. For the same compound, the TGI (K-562 leukemia) was 25.1 µM, the GI50 (KM12 colon) was under 0.01 µM and the TGI (KM12 colon) was 1.07 µM. It also gave a GI50 (LOX IMVI melanoma) of under 0.0123 µM, a TGI (LOX IMVI melanoma) of 13.5 µM and a GI50 (M14 melanoma) of under 0.01 µM. The TGI (M14 melanoma) was 13.7 µM, the GI50 (MALME-3M melanoma) was under 0.0484 µM and the TGI (MALME-3M melanoma) was 10.1 µM. For the same compound, the GI50 (MCF7 breast) was under 0.01 µM, the TGI (MCF7 breast) was 12.3 µM and the GI50 (MDA-MB-231 breast) was 0.025 µM. For the same compound, the TGI (MDA-MB-231 breast) was 13 µM, the GI50 (MOLT-4 leukemia) was 0.0237 µM and the TGI (MOLT-4 leukemia) was 15.2 µM. It also gave a GI50 (NCI-H226 lung) of under 0.01 µM, a TGI (NCI-H226 lung) of 0.827 µM and a GI50 (NCI-H23 lung) of under 0.0156 µM. The TGI (NCI-H23 lung) was 6.26 µM, the GI50 (NCI-H460 lung) was under 0.01 µM and the TGI (NCI-H460 lung) was 10.8 µM. It also gave a GI50 (NCI-H522 lung) of under 0.01 µM, a TGI (NCI-H522 lung) of 3.12 µM and a GI50 (NCI/ADR-RES ovarian) of under 0.01 µM. The TGI (NCI/ADR-RES ovarian) was 0.629 µM, the GI50 (OVCAR-3 ovarian) was under 0.01 µM and the TGI (OVCAR-3 ovarian) was under 0.0107 µM. For the same compound, the GI50 (OVCAR-4 ovarian) was under 0.0161 µM, the TGI (OVCAR-4 ovarian) was 13.5 µM and the GI50 (OVCAR-5 ovarian) was 0.0319 µM. It also gave a TGI (OVCAR-5 ovarian) of 17.4 µM, a GI50 (OVCAR-8 ovarian) of 0.0172 µM and a TGI (OVCAR-8 ovarian) of 32.6 µM. For the same compound, the GI50 (PC-3 prostate) was under 0.01 µM, the TGI (PC-3 prostate) was 15.6 µM and the TGI (RPMI-8226 leukemia) was 4.99 µM. The GI50 (RXF 393 renal) was under 0.01 µM, the TGI (RXF 393 renal) was 20 µM and the GI50 (SF-268 CNS) was 0.0221 µM. For the same compound, the TGI (SF-268 CNS) was 14.1 µM, the GI50 (SF-295 CNS) was under 0.01 µM and the TGI (SF-295 CNS) was 11.4 µM. The GI50 (SF-539 CNS) was under 0.01 µM, the GI50 (SK-MEL-2 melanoma) was 0.142 µM and the TGI (SK-MEL-2 melanoma) was 14.4 µM. The GI50 (SK-MEL-28 melanoma) was 1.35 µM, the TGI (SK-MEL-28 melanoma) was 13.8 µM and the GI50 (SK-MEL-5 melanoma) was under 0.01 µM. It also gave a TGI (SK-MEL-5 melanoma) of 0.0374 µM, a GI50 (SK-OV-3 ovarian) of under 0.01 µM and a TGI (SK-OV-3 ovarian) of 18.4 µM. For the same compound, the GI50 (SN12C renal) was under 0.0159 µM, the TGI (SN12C renal) was 13.3 µM and the GI50 (SNB-19 CNS) was under 0.0132 µM. For the same compound, the TGI (SNB-19 CNS) was 18.4 µM, the GI50 (SNB-75 CNS) was under 0.0105 µM and the TGI (SNB-75 CNS) was 13 µM. The GI50 (SR leukemia) was under 0.01 µM, the TGI (SR leukemia) was 24.8 µM and the GI50 (SW-620 colon) was under 0.01 µM. It also gave a TGI (SW-620 colon) of 17.6 µM, a TGI (TK-10 renal) of 16.9 µM and a GI50 (U251 CNS) of under 0.01 µM. The TGI (U251 CNS) was 11.6 µM, the GI50 (UACC-257 melanoma) was 0.283 µM and the TGI (UACC-257 melanoma) was 10.6 µM. For the same compound, the GI50 (UO-31 renal) was under 0.0287 µM and the TGI (UO-31 renal) was 13.8 µM.
